Key:
[1] = system: HCT116; assay: Inhibition of cell proliferation, HCT116; assay type: cell-based; conditions: Homo sapiens, HCT-116; 72 h treatment; methylene blue or CellTiter-Glo
[2] = system: COLO205; assay: Inhibition of cell proliferation, COLO205; assay type: cell-based; conditions: Homo sapiens, COLO 205; Colon; 72 h; methylene blue or CellTiter-Glo
Description: (§1) II. Inhibition of Cell Proliferation by PLK1 Inhibitors.
(§2) Exponentially growing cell lines of different tumor origins, cultured in appropriate media containing 10% fetal bovine serum at 37° C. in a 5% CO2 incubator were plated in 96 or 384-well plates. Twenty four hours post-plating, cells were treated with different concentrations of test compounds ranging from 20 μM to 0.04 nM. Several wells were left untreated as a control. Seventy two hours post-treatment, cell numbers were determined using different techniques; 100 μl per well of methylene blue (Sigma M9140) (0.5% in 50:50 Ethanol:water), or 10-100 μl per well of CellTiter-Glo (Promega #G7573), depending on well size. For methylene blue staining, stain was incubated at room temperature for 30 minutes before plates were rinsed and dye solubilized in 1% N-lauroyl sarcosine, sodium salt, (Sigma L5125, in PBS). Plates were read on a microplate reader, measuring the OD at 620 nm. For CellTiter-Glo, plates were incubated at room temperature for 15 minutes and the chemiluminescent signal was read on the Victor V or Envison 2100 reader.
(§3) Percent inhibition of cell growth was expressed as percent proliferation relative to 100% proliferation (control). Concentration of test compound that inhibited 50% of cell growth (IC50) was determined by 4 parameter fit of data using XLfit, (value of no cell control was substracted from all samples for background). The data are shown in Table 1 and Table 2 below and represent a compilation of several different experiments each performed using the general parameters outlined above, although minor variations may have been employed in some instances, in Table 1 and Table 2, +=IC50>1 μM; ++=IC50 0.5-1 μM: +++=IC50<0.5 μM.

[3] = system: HT29; assay: Inhibition of cell proliferation, HT29; assay type: cell-based; conditions: Homo sapiens, HT-29; Colon; 72 h; methylene blue or CellTiter-Glo
Description: as §1, §2, §3

[4] = system: MX-1; assay: Inhibition of cell proliferation, MX-1; assay type: cell-based; conditions: Homo sapiens, MX1; Breast; 72 h; methylene blue or CellTiter-Glo
Description: as §1, §2, §3

[5] = system: SKOV-3; assay: Inhibition of cell proliferation, SKOV-3; assay type: cell-based; conditions: Homo sapiens, SK-OV-3; Ovarian; 72 h; methylene blue or CellTiter-Glo
Description: as §1, §2, §3

[6] = system: LNCaP; assay: Inhibition of cell proliferation, LNCaP; assay type: cell-based; conditions: Homo sapiens, Prostate, 72 h, methylene blue or CellTiter-Glo
Description: as §1, §2
(§4) Percent inhibition of cell growth was expressed as percent proliferation relative to 100% proliferation (control). […]

[7] = system: H1299; assay: Inhibition of cell proliferation, H1299; assay type: cell-based; conditions: Homo sapiens, NCI-H1299; Lung; 72 h; methylene blue or CellTiter-Glo
Description: as §1, §2, §4

[8] = system: Hela; assay: Inhibition of cell proliferation, Hela; assay type: cell-based; conditions: Homo sapiens, Cervical, 72 h, methylene blue or CellTiter-Glo
Description: as §1, §2, §4

[9] = system: HN5; assay: Inhibition of cell proliferation, HN5; assay type: cell-based; conditions: Homo sapiens; Head and neck; Table 2 first HN5 line; 72 h
Description: as §1, §2, §3

[10] = system: MCF7; assay: Inhibition of cell proliferation, MCF7; assay type: cell-based; conditions: Homo sapiens, Breast, 72 h, methylene blue or CellTiter-Glo
Description: as §1, §2, §4

[11] = system: MDA-MB-468; assay: Inhibition of cell proliferation, MDA-MB-468; assay type: cell-based; conditions: Homo sapiens, Breast, 72 h, methylene blue or CellTiter-Glo
Description: as §1, §2, §4

[12] = system: RPMI 8226; assay: Inhibition of cell proliferation, RPMI 8226; assay type: cell-based; conditions: Homo sapiens, leukemia, 72 h, methylene blue or CellTiter-Glo
Description: as §1, §2, §4

[13] = system: A549-L; assay: Inhibition of cell proliferation, A549-L; assay type: cell-based; conditions: lung; 72 h; methylene blue or CellTiter-Glo
Description: as §1, §2, §3

[14] = system: P388; assay: Inhibition of cell proliferation, P388; assay type: cell-based; conditions: Mouse leukemia, 72 h, methylene blue or CellTiter-Glo
Description: as §1, §2, §3

[15] = biological target: T1, PLK1 kinase domain (Homo sapiens, UniProt P53350); assay: Assay for inhibition of PLK1 (33P SPA kinase assay); assay type: biochemical; conditions: 2 nM PLK1 kinase domain, 1 μM ATP, 1 μM substrate peptide; read-out: PLK1 pIC50 (converted)
T1 construct: His-tagged PLK kinase domain (amino acids 21-346 preceded by MKKGHHHHHHD); made in house; host or cells: baculovirus-infected T. ni insect cells
T1 sequence (P53350 21-346): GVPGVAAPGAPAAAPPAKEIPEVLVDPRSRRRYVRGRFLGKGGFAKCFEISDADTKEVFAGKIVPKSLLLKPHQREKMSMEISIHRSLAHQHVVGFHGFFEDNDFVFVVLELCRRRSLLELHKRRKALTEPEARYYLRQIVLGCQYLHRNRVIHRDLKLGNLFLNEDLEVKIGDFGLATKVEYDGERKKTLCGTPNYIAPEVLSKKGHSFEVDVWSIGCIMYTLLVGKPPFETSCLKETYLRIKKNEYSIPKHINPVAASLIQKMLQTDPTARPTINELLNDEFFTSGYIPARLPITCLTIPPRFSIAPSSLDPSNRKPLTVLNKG
Description: I. Assay for Inhibition of PLK1
A. Preparation of 6× N-Terminal His-Tagged PLK Kinase Domain
6× N-terminal His-tagged PLK kinase domain (amino acids 21-346 preceded by MKKGHHHHHHD) SEQ ID: No. 1. was prepared from baculovirus infected T. ni cells under polyhedrin promoter control. All procedures were performed at 4° C. Cells were lysed in 50 mM HEPES, 200 mM NaCl, 50 mM imidazole, 5% glycerol; pH 7.5. The homogenate was centrifuged at 14K rpm in a SLA-1500 rotor for 1 br and the supernatant filtered through a 1.2 micron filter. The supernatant was loaded onto a Nickel chelating Sepharose (Amersham Pharmacia) column and washed with lysis buffer. Protein was eluted using 20%, 30% and 100% buffer B steps where buffer B was 50 mM HEPES, 200 mM NaCl, 300 mM imidazole, 5% glycerol; pH 7.5. Fractions containing PLK were determined by SOS-PAGE. Fractions containing PLK were diluted five-fold with 50 mM HEPES, 1 mM DTT, 5% glycerol; pH 7.5, then loaded on an SP Sepharose (Amersham Pharmacia) column. After washing the column with 50 mM HEPES, 1 mM DTT, 5% glycerol; pH 7.5, PLK was step eluted with 50 mM HEPES, 1 mM DTT, 500 mM NaCl; 5% glycerol; pH 7.5. PLK was concentrated using a 10 kDa molecular weight cutoff membrane and then loaded onto a Superdex 200 gel filtration (Amersham Pharmacia) column equilibrated in 25 mM HEPES, 1 mM DTT, 500 mM NaCl, 5% glycerol; pH 7.5. Fractions containing PLK were determined by SDS-PAGE. PLK was pooled, aliquoted and stored at −80° C. Samples were quality controlled using mass spectrometry, N-terminal sequencing and amino acid analysis.
B. Enzyme Activity ± Inhibitors was Determined as Follows:
All measurements were obtained under conditions where signal production increased linearly with time and enzyme. Test compounds were added to white 384-well assay plates (0.1 μL for 10 μL and some 20 μL assays, 1 μL for some 20 μL assays) at variable known concentrations in 100% DMSO. DMSO (1-5% final, as appropriate) and EDTA (65 mM in reaction) as controls. Reaction Mix was prepared as follows at 22° C.: • 25 mM HEPES, pH 7.2 • 15 mM MgCl2 • 1 μM ATP • 0.05 μCi/well ^33P-γ ATP (10 Ci/mMol) • 1 μM substrate peptide (Biotin-Ahx-SFNDTLDFD) SEQ ID:No. 2. • 0.15 mg/mL BSA • 1 mM DTT • 2 nM PLK1 kinase domain (added last)
Reaction Mix (10 or 20 μL) was quickly added to each well immediately following addition of enzyme via automated liquid handlers and incubated 1-1.5 h at 22° C. […] Plates were sealed with dear plastic seals, spun at 500×g for 1 min or settled overnight, and counted in Packard TopCount for 30 seconds/well (regular SPA) or imaged using a Viewlux imager (LeadSeeker SPA). […]

| SMILES | IC50 [1] | IC50 [2] | IC50 [3] | IC50 [5] | IC50 [15] | IC50 [4] | other results |
| --- | --- | --- | --- | --- | --- | --- | --- |
| C[C@@H](Oc1cc(-n2cnc3cc(-c4cnn(C)c4)ccc32)sc1C(N)=O)c1cccc(OC2CCN(CCS(C)(=O)=O)CC2)c1Cl [Example 31, 3-({(1R)-1-[2-Chloro-3-({1-[2-(methylsulfonyl)ethyl]-4-piperidinyl}oxy)phenyl]ethyl}oxy)-5-[5-(1-methyl-1H-pyrazol-4-yl)-1H-benzimidazol-1-yl]-2-thiophenecarboxamide] | < 0.5 µM | < 0.5 µM | < 0.5 µM | < 0.5 µM | – | < 0.5 µM | IC50 [6]: 0.5 to 1 µM; IC50 [7]: < 0.5 µM; IC50 [8]: < 0.5 µM; IC50 [9]: < 0.5 µM; IC50 [10]: < 0.5 µM; IC50 [11]: < 0.5 µM; IC50 [12]: < 0.5 µM |
| C[C@@H](Oc1cc(-n2cnc3cc(-c4cnn(C)c4)ccc32)sc1C(N)=O)c1cccc(OCC2CCN(C)CC2)c1Cl [Example 45, 3-{[(1R)-1-(2-Chloro-3-{[(1-methyl-4-piperidinyl)methyl]oxy}phenyl)ethyl]oxy}-5-[5-(1-methyl-1H-pyrazol-4-yl)-1H-benzimidazol-1-yl]-2-thiophenecarboxamide] | < 0.5 µM | < 0.5 µM | < 0.5 µM | < 0.5 µM | – | < 0.5 µM | IC50 [13]: < 0.5 µM; IC50 [14]: < 0.5 µM |
| C[C@@H](Oc1cc(-n2cnc3cc(-c4cnn(C)c4)ccc32)sc1C(N)=O)c1cccc(OC2CCNCC2)c1Cl [Example 47, 3-({(1R)-1-[2-Chloro-3-(4-piperidinyloxy)phenyl]ethyl}oxy)-5-[5-(1-methyl-1H-pyrazol-4-yl)-1H-benzimidazol-1-yl]-2-thiophenecarboxamide] | < 0.5 µM | < 0.5 µM | < 0.5 µM | < 0.5 µM | – | < 0.5 µM | IC50 [13]: < 0.5 µM; IC50 [14]: < 0.5 µM |
| C[C@@H](Oc1cc(-n2cnc3ccc(CS(C)(=O)=O)cc32)sc1C(N)=O)c1cccc(OC[C@H]2CCCN2C)c1Cl [Example 58, 3-({(1R)-1-[2-chloro-3-({[(2R)-1-methyl-2-pyrrolidinyl]methyl}oxy)phenyl]ethyl}oxy)-5-{6-[(methylsulfonyl)methyl]-1H-benzimidazol-1-yl}-2-thiophenecarboxamide] | > 1 µM | – | – | – | < 0.1 µM | – | – |

Continued, in another order:

| IC50 [1] | IC50 [2] | IC50 [3] | IC50 [5] | IC50 [15] | SMILES | IC50 [4] | other results |
| --- | --- | --- | --- | --- | --- | --- | --- |
| > 1 µM | – | – | – | < 0.1 µM | C[C@@H](Oc1cc(-n2cnc3cc(S(C)(=O)=O)ccc32)sc1C(N)=O)c1cccc(OC2CCNCC2)c1Cl [Example 59, 3-({(1R)-1-[2-chloro-3-(4-piperidinyloxy)phenyl]ethyl}oxy)-5-[5-(methylsulfonyl)-1H-benzimidazol-1-yl]-2-thiophenecarboxamide] | – | – |
| > 1 µM | – | – | – | < 0.1 µM | C[C@@H](Oc1cc(-n2cnc3ccc(S(C)(=O)=O)cc32)sc1C(N)=O)c1cccc(OC2CCNCC2)c1Cl [Example 60, 3-({(1R)-1-[2-chloro-3-(4-piperidinyloxy)phenyl]ethyl}oxy)-5-[6-(methylsulfonyl)-1H-benzimidazol-1-yl]-2-thiophenecarboxamide] | – | – |
| > 1 µM | – | – | – | < 0.1 µM | CC(Oc1cc(-n2cnc3cc(-c4cnn(C)c4)ccc32)sc1C(N)=O)c1cc(OC2CCN(C)CC2)ccn1 (stereo not shown) [Example 86, 3-[(1-{4-[(1-Methyl-4-piperidinyl)oxy]-2-pyridinyl}ethyl)oxy]-5-[5-(1-methyl-1H-pyrazol-4-yl)-1H-benzimidazol-1-yl]-2-thiophenecarboxamide] | – | – |
